{
  "source": "patent US5459257A",
  "about": "“Sulfated oligoglycoside acylate and antiviral agent containing the same as active ingredient” (priority 1993, dated 1995)",
  "key": {"HIV [1]": {"system": "HIV", "assay": "anti-HIV activity, inhibition of HIV-induced cytopathicity in MT-4 cells (MTT method)", "assay_type": "cell-based", "procedure": "(§1) A test compound having various concentrations were placed in a 96-well microtiter plate along with HIV-infected MT-4 cells (2.5×10^4 /well, MOI (multiplicity of infection): 0.01) immediately after infection thereof. In order to ascertain the cytotoxicty of the test compound with respect to MT-4 cells, mock-infected (non-infected) cells were cultured in an identical manner along with the test compound of various concentrations. After incubating for 5 days at 37° C. in a CO2 atmosphere, the number of living cells were determined by using MTT method. The anti-HIV activity was evaluated with the method written by R. Pauwels, et al. (R. Pauwels, et al., J. Virol Methods, 20, 309 to 321 (1988)).\nThe anti-HIV activity is shown in terms of EC50 (50% effective concentration) that is the concentration of a compound which inhibits 50% of HIV-induced cytopathicity in MT-4 cells, and the cytotoxity is shown in terms of CC50 (cytotoxic concentration) that is the concentration of a compound which reduces 50% of viability of mock-infected MT-4 cells. Selectivity Index (S.I.) is expressed by the ratio of CC50 to EC50 (CC50 /EC50)."}, "MT-4 cells": {"system": "MT-4 cells", "assay": "cytotoxicity in mock-infected MT-4 cells (MTT method)", "assay_type": "cell-based", "conditions": "mock-infected MT-4 cells, 5 days, 37° C.; 7200 min", "procedure": "as §1, with “method.” for “method. The anti-HIV activity was evaluated with the method written by R. Pauwels, et al. (R. Pauwels, et al., J. Virol Methods, 20, 309 to 321 (1988)).”\nSelectivity Index (S.I.) is expressed by the ratio of CC50 to EC50 (CC50 /EC50)."}, "HIV [2]": {"system": "HIV", "assay": "anti-HIV activity of serum after oral administration to mice", "assay_type": "in vivo", "conditions": "for reciprocal number of concentration at 50% cell viability: mouse serum", "procedure": "The effects of orally administration of Compound 1 in vivo experiment were studied by duration of the activity using mouse.\nCompound 1 was dissolved with distilled water at the concentrations of 500 mg/10 ml and 1000 mg/10 ml.\n(§2) Mouse (Crj:CD-1(ICR)) (supplier: Charles River Japan, Inc.), six weeks old were used for this study.\nThree groups (for 1, 2 and 3 hours) of mice (one group: three mice) were used for the in vivo experiments. Nine mice were given an orally administered of Compound 1 at a dose of 500 mg/kg or 1.0 g/kg.\nAt decided times after administration, the blood was collected and the serum was collected by centrifugation at low speed.\nThe serum samples were stored at -80° C. until assayed.\nEach serum sample was diluted to evaluate the effective concentration with culture medium. The evaluation method was the same as described the section of Anti-HIV activity."}, "rabbit blood [3]": {"system": "rabbit blood", "assay": "effects on blood clotting, whole blood clotting time", "conditions": "for clotting time: rabbit whole blood", "quoted_text": "(§3) Sodium heparin (Kodama) used as positive control was diluted with saline at the concentration of 120 U/ml.\n(§4) Japan White rabbits (supplier: Kitayama Labes), 4 months old, were used for this study.\n(§5) Cardiopuncture was performed in a rabbit, and at when blood was started to be flowed into the syringe, the timer was made to start. The whole blood collected was carefully flowed into double glass tubes incubated. After putting the samples calmly for 3 minutes, the first tube was tilted gently every 30 seconds and the current of blood was observed. When blood in the first tube was clotted, the same operation was performed in the second tube. When the blood was clotted in the second tube, the timer was stopped, and this end point was recorded as whole blood clotting time."}, "HIV [4]": {"system": "HIV", "assay": "anti-HIV activity of serum after intravenous administration to mice", "assay_type": "in vivo", "conditions": "for reciprocal number of concentration of dextran sulfate at 50% cell viability: mouse serum, 80 mg/kg", "procedure": "The effects of Compound 6 and dextran sulfate in vivo experiment were studied by duration of the activity using mouse.\nCompound 6 were dissolved with saline at the concentration of 32 mg/10 ml. Dextran sulfate (Control compound: M.W=8000: Sigma) were dissolved with it at the concentration of 80 mg/10 ml.\nas §2\nFour groups (for 1, 4, 6 and 12 hours) of mice (one group: three mice) were used for the in vivo experiments of the Compound 6.\nThe twelve mice were given an intravenous injection of the compound (in the tail vein; Dose 32 mg/kg).\nThree groups (for 20, 40 and 60 minutes) of mice (one group: two mice) were used for dextran sulfate such a method as described in Compound 6 (Dose 80 mg/kg). At decided times after injection, the blood was collected and serum was separated by centrifugation at low speed.\nThe serum samples were stored at -80° C. until assayed. Each serum sample was diluted with culture medium to evaluate the effective concentration (the maximum concentration was set up to 10%). The method of this anti-HIV activity evaluation was the same one as described in EXAMPLE 49.\n(*)Various concentration of the serum solutions (diluted with the medium\nand the maximum concentration is 10%) were used for evaluation of the\nshown. That is why the higher the reciprocal number, the higher the […]"}, "rabbit blood [5]": {"system": "rabbit blood", "quoted_text": "as §3, §4, §5"}, "[6]": {"conditions": "in vivo; cited from earlier work"}},
  "note": "Like-named read-outs stand apart in the source and are kept apart here.",
  "data": [
    {"substance": "Sulfated n-dodecyl O-benzoyl-β-D-laminaripentaoside [Compound 1]", "values": [
      {"measurement": "EC50", "setting": "HIV [1]; HIV-infected MT-4 cells, MOI 0.01, 5 days, 37° C.", "value": 3.2, "unit": "µg/mL"},
      {"measurement": "S.I. (CC50/EC50)", "setting": "HIV [1]; MT-4 cells, ratio of CC50 to EC50, 7200 min", "value": 254},
      {"measurement": "CC50", "setting": "MT-4 cells", "value": 814, "unit": "µg/mL"},
      {"measurement": "reciprocal number of concentration at 50% cell viability", "setting": "HIV [2]; 1 hour after oral administration, 500 mg/kg", "value": 15.9},
      {"measurement": "reciprocal number of concentration at 50% cell viability", "setting": "HIV [2]; 1 hour after oral administration, 1.0 g/kg", "value": 55.6},
      {"measurement": "reciprocal number of concentration at 50% cell viability", "setting": "HIV [2]; 2 hours after oral administration, 500 mg/kg", "value": 19.2},
      {"measurement": "reciprocal number of concentration at 50% cell viability", "setting": "HIV [2]; 2 hours after oral administration, 1.0 g/kg", "value": 83.8},
      {"measurement": "reciprocal number of concentration at 50% cell viability", "setting": "HIV [2]; 3 hours after oral administration, 500 mg/kg", "value": 26.7},
      {"measurement": "reciprocal number of concentration at 50% cell viability", "setting": "HIV [2]; 3 hours after oral administration, 1.0 g/kg", "value": 54.1},
      {"measurement": "detection of activity in serum after oral administration", "setting": "HIV [2]; mouse, oral, 500 mg/kg or 1.0 g/kg", "value": "detected at a high concentration"},
      {"measurement": "comparing strength of effects on blood clotting", "setting": "rabbit blood [3]; at the concentration of more than 0.1%", "value": "dextran sulfate>1>6"},
      {"measurement": "clotting time", "setting": "rabbit blood [3]; 0.01%", "value": "8.0 ± 0.5", "unit": "min"},
      {"measurement": "clotting time", "setting": "rabbit blood [3]; 0.1%", "value": "8.3 ± 0.7", "unit": "min"},
      {"measurement": "clotting time", "setting": "rabbit blood [3]; 1.0%", "value": "27.3 ± 3.0", "unit": "min"}
    ]},
    {"substance": "dextran sulfate", "values": [
      {"measurement": "reciprocal number of concentration of dextran sulfate at 50% cell viability", "setting": "HIV [4]; 20 min after i.v. injection", "value": "< 10"},
      {"measurement": "reciprocal number of concentration of dextran sulfate at 50% cell viability", "setting": "HIV [4]; 40 min after i.v. injection", "value": "< 10"},
      {"measurement": "reciprocal number of concentration of dextran sulfate at 50% cell viability", "setting": "HIV [4]; 60 min after i.v. injection", "value": "< 10"},
      {"measurement": "detection/duration of activity in serum", "setting": "HIV [4]; mouse, i.v., Compound 6 32 mg/kg up to 12 hours, dextran sulfate 80 mg/kg up to 60 min", "value": "could not be detected"},
      {"measurement": "comparing strength of effects on blood clotting", "setting": "rabbit blood [5]", "value": "dextran sulfate>1>6"},
      {"measurement": "absorption after oral administration", "setting": "[6]", "value": "poorly absorbed"}
    ]}
  ]
}
